Results as given in patent US20020137154A1, “Methods for improving cell growth and alcohol production during fermentation” (priority 2000, published 2002).
Where two headings read alike, the source gives them in different places.

Tested on: recombinant Escherichia coli KO11
Assay: Batch fermentation of E. coli KO11 in 1% CSL medium and glucose with nutrient additives: ethanol production and cell growth
Assay type: cell-based
Settings: for Ethanol Production Maximum / Ethanol yield / Initial Growth (OD @ 24 h) OD / Maximum Cell Density OD / Volumetric Productivity Average / Volumetric Productivity Maximum: 1% CSL+glucose; for activity at 500 µg/mL / activity at 250 µg/mL / activity at 750 µg/mL: Escherichia coli

## CC=O [Acetaldehyde, acetaldehyde]
1% CSL and glucose, 0.25 g/L at the start
  initial growth and maximum cell density as compared to a control: greatest initial growth and maximum cell density
1% CSL and glucose, 0.75 g/L at the start
  ethanol production as compared to the control: highest amount of ethanol production
0.25 g/L at start
  Ethanol Production Maximum: 40.31 g/L
  Ethanol yield: 0.415 grams of ethanol/grams of added sugar
  Initial Growth (OD @ 24 h) OD: 3.00 OD
  Maximum Cell Density OD: 3.17 OD
  Volumetric Productivity Average: 0.560 grams ethanol/(liter)(hour)
  Volumetric Productivity Maximum: 0.678 grams ethanol/(liter)(hour)
0.5 + 0.25 g/L (start, 8 h)
  Ethanol Production Maximum: 40.25 g/L
  Ethanol yield: 0.414 grams of ethanol/grams of added sugar
  Initial Growth (OD @ 24 h) OD: 2.64 OD
  Maximum Cell Density OD: 2.99 OD
  Volumetric Productivity Average: 0.419 grams ethanol/(liter)(hour)
  Volumetric Productivity Maximum: 0.598 grams ethanol/(liter)(hour)
0.5 + 0.5 g/L (start, 8 h)
  Ethanol Production Maximum: 40.03 g/L
  Ethanol yield: 0.412 grams of ethanol/grams of added sugar
  Initial Growth (OD @ 24 h) OD: 2.74 OD
  Maximum Cell Density OD: 3.09 OD
  Volumetric Productivity Average: 0.417 grams ethanol/(liter)(hour)
  Volumetric Productivity Maximum: 0.659 grams ethanol/(liter)(hour)
0.5 g/L at start
  Ethanol Production Maximum: 39.95 g/L
  Ethanol yield: 0.411 grams of ethanol/grams of added sugar
  Initial Growth (OD @ 24 h) OD: 2.77 OD
  Maximum Cell Density OD: 2.96 OD
  Volumetric Productivity Average: 0.416 grams ethanol/(liter)(hour)
  Volumetric Productivity Maximum: 0.615 grams ethanol/(liter)(hour)
0.75 g/L at start
  Ethanol Production Maximum: 43.44 g/L
  Ethanol yield: 0.447 grams of ethanol/grams of added sugar
  Initial Growth (OD @ 24 h) OD: 2.47 OD
  Maximum Cell Density OD: 2.81 OD
  Volumetric Productivity Average: 0.452 grams ethanol/(liter)(hour)
  Volumetric Productivity Maximum: 0.699 grams ethanol/(liter)(hour)
8 h, read-out: Ethanol Production Maximum % Control, 1% CSL+glucose, 0.5 + 0.25 g/L (start, 8 h)
  activity at 500 µg/mL: 109%
8 h, read-out: Ethanol Production Maximum % Control, 1% CSL+glucose, 0.5 + 0.5 g/L (start, 8 h)
  activity at 500 µg/mL: 108%
8 h, read-out: Maximum Cell Density % Control, 1% CSL+glucose, 0.5 + 0.25 g/L (start, 8 h)
  activity at 500 µg/mL: 111%
8 h, read-out: Maximum Cell Density % Control, 1% CSL+glucose, 0.5 + 0.5 g/L (start, 8 h)
  activity at 500 µg/mL: 115%
8 h, read-out: Volumetric Productivity Average % Control, 1% CSL+glucose, 0.5 + 0.25 g/L (start, 8 h)
  activity at 500 µg/mL: 109%
8 h, read-out: Volumetric Productivity Average % Control, 1% CSL+glucose, 0.5 + 0.5 g/L (start, 8 h)
  activity at 500 µg/mL: 108%
8 h, read-out: Volumetric Productivity Maximum % Control, 1% CSL+glucose, 0.5 + 0.25 g/L (start, 8 h)
  activity at 500 µg/mL: 116%
8 h, read-out: Volumetric Productivity Maximum % Control, 1% CSL+glucose, 0.5 + 0.5 g/L (start, 8 h)
  activity at 500 µg/mL: 128%
24 h, read-out: Initial Growth (OD @ 24 h) % Control, 1% CSL+glucose, 0.25 g/L at start
  activity at 250 µg/mL: 112%
24 h, read-out: Initial Growth (OD @ 24 h) % Control, 1% CSL+glucose, 0.5 + 0.25 g/L (start, 8 h)
  activity at 500 µg/mL: 98.9%
24 h, read-out: Initial Growth (OD @ 24 h) % Control, 1% CSL+glucose, 0.5 + 0.5 g/L (start, 8 h)
  activity at 500 µg/mL: 103%
24 h, read-out: Initial Growth (OD @ 24 h) % Control, 1% CSL+glucose, 0.5 g/L at start
  activity at 500 µg/mL: 104%
24 h, read-out: Initial Growth (OD @ 24 h) % Control, 1% CSL+glucose, 0.75 g/L at start
  activity at 750 µg/mL: 92.5%
read-out: Ethanol Production Maximum % Control, 1% CSL+glucose, 0.25 g/L at start
  activity at 250 µg/mL: 109%
read-out: Ethanol Production Maximum % Control, 1% CSL+glucose, 0.5 g/L at start
  activity at 500 µg/mL: 108%
read-out: Ethanol Production Maximum % Control, 1% CSL+glucose, 0.75 g/L at start
  activity at 750 µg/mL: 117%
read-out: Maximum Cell Density % Control, 1% CSL+glucose, 0.25 g/L at start
  activity at 250 µg/mL: 118%
read-out: Maximum Cell Density % Control, 1% CSL+glucose, 0.5 g/L at start
  activity at 500 µg/mL: 110%
read-out: Maximum Cell Density % Control, 1% CSL+glucose, 0.75 g/L at start
  activity at 750 µg/mL: 105%
read-out: Volumetric Productivity Average % Control, 1% CSL+glucose, 0.25 g/L at start
  activity at 250 µg/mL: 145%
read-out: Volumetric Productivity Average % Control, 1% CSL+glucose, 0.5 g/L at start
  activity at 500 µg/mL: 108%
read-out: Volumetric Productivity Average % Control, 1% CSL+glucose, 0.75 g/L at start
  activity at 750 µg/mL: 117%
read-out: Volumetric Productivity Maximum % Control, 1% CSL+glucose, 0.25 g/L at start
  activity at 250 µg/mL: 132%
read-out: Volumetric Productivity Maximum % Control, 1% CSL+glucose, 0.5 g/L at start
  activity at 500 µg/mL: 120%
read-out: Volumetric Productivity Maximum % Control, 1% CSL+glucose, 0.75 g/L at start
  activity at 750 µg/mL: 136%
